Test results published in patent US7651999B2, “2′, 5′-oligoadenylate analogs” (Sankyo Company, Limited, priority 2002, dated 2010).
Read-outs that look alike come from different tables or passages of the source.

System: Human lung cancer cell line A549 cells
Settings: 72 hours, MTT, 0.001-10 μM tested
[1] = read-out: 50% Growth inhibitory concentrations of the subject compounds with respect to A549 cells, Experiment 1
[2] = read-out: 50% Growth inhibitory concentrations of the subject compounds with respect to A549 cells, Experiment 2
[3] = read-out: 50% Growth inhibitory concentrations of the subject compounds with respect to A549 cells, Experiment 3

Experimental: Human lung cancer cell line A549 cells were plated at a density of 800 cells/200 μl in a 96-well plate using RPMI1640 (Gibco BRL) (containing 10% Fetal Bovine Serum (Hyclone)) for the medium followed by culturing overnight in 5% CO2 at 37° C. Each 2-5A analog was added to each well so that the final concentration became 0.001-10 μM, followed by culturing for 72 hours (3 days) (n=3 or 4). After culturing for 72 hours (3 days), MTT (3-[4,5-dimethylthiazol-2-yl]-2,5-diphenyltetrazolium bromide) was added in 50 μl aliquots to each well at a MTT/RPMI1640 concentration of 5 mg/ml, followed by additionally culturing for 4 hours. After 4 hours, the medium was removed and 150 μl of dimethyl sulfoxide were added to each well. After shaking for 5 minutes, UV absorbance at 540 nm, was measured to determine the relative ratio of the number of viable cells of the compound dose group to the number of viable cells of an untreated cell group followed by calculation of the IC50 concentration that inhibits cell growth by 50%.

| SMILES | IC50 [1] [nM] | IC50 [2] [nM] | IC50 [3] [nM] |
| --- | --- | --- | --- |
| Nc1ncnc2c1ncn2[C@@H]1O[C@@]2(COP(=O)(O)OC3C(O)[C@@H](COP(=O)(S)OC4C(O)[C@@H](COP(=O)(O)S)O[C@H]4n4cnc5c(N)ncnc54)O[C@H]3n3cnc4c(N)ncnc43)CCCOC2C1O (some centres unmarked) [Example 8] | 2230 | – | – |
| COC1C(OP(=O)(O)OC[C@H]2O[C@@H](n3cnc4c(N)ncnc43)C(OP(=O)(O)OC[C@]34CCCOC3C(O)[C@H](n3cnc5c(N)ncnc53)O4)C2O)[C@H](n2cnc3c(N)ncnc32)O[C@@H]1COP(=O)(O)SCCOC(=O)C(C)(C)C (some centres unmarked) [Example 13] | – | 2540 | – |
| COC1C(OP(=O)(O)OC[C@H]2O[C@@H](n3cnc4c(N)ncnc43)C(OP(=O)(O)OC[C@]34CCCOC3C(O)[C@H](n3cnc5c(N)ncnc53)O4)C2O)[C@H](n2cnc3c(N)ncnc32)O[C@@H]1COP(=O)(O)SCOC(=O)C(C)(C)C (some centres unmarked) [Example 5] | 400 | 320 | – |
| CCCCCCCCCC(=O)OCCSP(=O)(O)OC[C@H]1O[C@@H](n2cnc3c(N)ncnc32)C(OP(=O)(O)OC[C@H]2O[C@@H](n3cnc4c(N)ncnc43)C(OP(=O)(O)OC[C@]34CCCOC3C(O)[C@H](n3cnc5c(N)ncnc53)O4)C2O)C1OC (some centres unmarked) [Example 17] | – | 350 | – |
| CCCCCCCCCCCCCC(=O)OCCSP(=O)(O)OC[C@H]1O[C@@H](n2cnc3c(N)ncnc32)C(OP(=O)(O)OC[C@H]2O[C@@H](n3cnc4c(N)ncnc43)C(OP(=O)(O)OC[C@]34CCCOC3C(O)[C@H](n3cnc5c(N)ncnc53)O4)C2O)C1OC (some centres unmarked) [Example 16] | – | 90 | – |
| COC1C(OP(=O)(O)OC[C@H]2O[C@@H](n3cnc4c(N)ncnc43)C(OP(=O)(O)OC[C@]34CCCOC3C(O)[C@H](n3cnc5c(N)ncnc53)O4)C2O)[C@H](n2cnc3c(N)ncnc32)O[C@@H]1COP(O)(O)=S (some centres unmarked) [Example 2] | 1530 | 910 | – |
| COC1C(OP(=O)(S)OC[C@H]2O[C@@H](n3cnc4c(N)ncnc43)C(OP(=O)(O)OC[C@]34CCCOC3C(O)[C@H](n3cnc5c(N)ncnc53)O4)C2O)[C@H](n2cnc3c(N)ncnc32)O[C@@H]1COP(=O)(O)SCOC(=O)C(C)(C)C (some centres unmarked) [Example 9] | 1390 | – | – |
| COC1C(OP(=O)(O)OC[C@H]2O[C@@H](n3cnc4c(N)ncnc43)C(OP(=O)(O)OC[C@]34CCCOC3C(O)[C@H](n3cnc5c(N)ncnc53)O4)C2O)[C@H](n2cnc3c(N)ncnc32)O[C@@H]1COP(=O)(O)SCCOC(=O)c1ccccc1 (some centres unmarked) [Example 14] | – | 2340 | – |
| COC1C(OP(=O)(O)OC[C@H]2O[C@@H](n3cnc4c(N)ncnc43)C(OP(=O)(O)OC[C@]34CCCOC3C(O)[C@H](n3cnc5c(N)ncnc53)O4)C2O)[C@H](n2cnc3c(N)ncnc32)O[C@@H]1COP(=O)(O)SCCO (some centres unmarked) [Example 33] | – | – | 2150 |
| Nc1ncnc2c1ncn2[C@@H]1O[C@H](COP(O)(=S)OC2C(O)[C@@H](COP(O)(=S)OC3C(O)[C@@H](COP(O)(O)=S)O[C@H]3n3cnc4c(N)ncnc43)O[C@H]2n2cnc3c(N)ncnc32)C(O)C1O (some centres unmarked) [Example 4] | 480 | 610 | 380 |
